From patent US9493466B2, “Treatment of cancer with TOR kinase inhibitors” (Signal Pharmaceuticals, LLC, priority 2011, dated 2016)

Columns and labels:
[1] = tested on: NCI-H441 tumors; assay: NCI-H441 NSCLC in vivo tumor growth model; parameters: species or system SCID mice; settings: 1 to 10 mg/kg oral BID, up to 26 days; FIG. 9
Protocol: NCI-H441 NSCLC In Vivo Tumor Growth Model. A xenograft study was conducted with NCI-H441 tumor-bearing mice. SCID mice were inoculated subcutaneously with NCI-H441 cells in the flank region above the right hind leg. Following inoculation of the animals, the tumors were allowed to grow to about 100 mm^3 prior to randomization. On Day 14 following tumor cell inoculation, the mice bearing NCI-H441 tumors ranging between 87 and 136 mm^3 were pooled together and randomized into various treatment groups. Compound 1 was formulated in 0.5% CMC and 0.25% Tween 80 in water (as a suspension). The animals were orally administered vehicle (CMC-Tween) or Compound 1 twice daily (BID) for up to 26 days. Doses of Compound 1 ranged between 1 and 10 mg/kg. The positive control rapamycin (4 mg/kg, Q3D) was administered via the intraperitoneal (IP) route. Rapamycin was prepared as solution in 2% ethanol, 45% polyethyleneglycol 400, and 53% saline. Tumors were measured twice a week using calipers and tumor volumes were calculated using the formula of W^2×L/2. Statistical analysis was performed using a one-way analysis of variance (ANOVA) followed by Dunnett's post-hoc comparison with the vehicle-treated control group.

[2] = tested on: HCT-116 tumors; assay: HCT-116 human colorectal cancer xenograft model; format: in vivo, SCID mice
Protocol: HCT-116 Human Colorectal Cancer Xenograft Model. The HCT-116 cell line was obtained from American Tissue Culture Collection (ATCC) (Gaithersberg, Md.) and grown in growth medium containing McCoy's 5A medium with 2 mM L-glutamine adjusted to contain 90% and 10% of fetal bovine serum. The cells were detached from tissue culture flasks using trypsin-EDTA. After centrifugation, the cell pellets were suspended in phosphate buffered saline (PBS) and counted using a hemocytometer. Matrigel was added to the cell suspension to adjust the final volume to 2×10^6 cells/0.1 mL of 1:1 mixture of Matrigel: PBS.
Female 6-8 weeks old CB17 SCID mice were obtained from Charles River Laboratories at a body weight of 17-20 g. Mice were anesthetized with inhaled isoflurane and then inoculated with HCT-116 tumor cells subcutaneously on the right hind leg with 0.1 mL of a single cell suspension using a sterile 1 mL syringe fitted with a 26 gauge needle. Following inoculation, the mice were returned to microisolator cages. The tumors were allowed to grow to about 100 mm^3 prior to randomization. The typical number of days required for tumors to reach 100 mm^3 was 7 to 8 days. The tumor of each animal was measured and animals with tumors ranging between 100 and 150 mm^3 were included in the study. The animals were distributed randomly into various cages and the cages were randomly assigned to vehicle, positive control, or test article groups. All of the mice were tagged with metal ear tags on the right ear. A typical group consisted of 8 to 10 animals.
Compound 1 was formulated in 0.5% CMC and 0.25% Tween 80 in water (as a suspension). The formulations were homogenized using a Teflon pestle and mortar (Potter-Elvehjem tissue grinder). Between the doses, the formulated compound was stored under constant stirring using a magnetic stirrer at 4° C. in the dark. The test article and vehicle were administered by oral gavage. The positive control (rapamycin) was prepared as solution in 2% ethanol, 45% polyethyleneglycol 400, and 53% saline and administered by IP injection. Vehicle and the test article were dosed in a volume of 5 mL/kg. The positive control rapamycin was dosed in a volume of 10 mL/kg. Sterile syringes and gavage needles were used for compound administration. All the procedures including injections were done in biosafety cabinets sprayed with ethanol prior to use.
Groups of female SCID mice bearing HCT-116 tumors (n=9-10/group) were dosed orally with vehicle or Compound 1 (1 mg/kg to 50 mg/kg) twice daily (BID), once daily (QD), every second day (Q2D), every third day (Q3D) or every 5th day (Q5D) throughout the study starting when the tumor volumes reached approximately 100 mm^3. The BID dose groups were dosed with a 10 h separation between the morning and evening doses. In the positive control group, rapamycin (n=6/group) was administered via the intraperitoneal (IP) route Q3D. At the end of each study, plasma and/or tumor samples were collected.
Tumor volumes were determined prior to the initiation of treatment and were considered as the starting volumes. Thereafter, tumors were measured twice a week for the duration of the study. The long and short axes of each tumor were measured using a digital caliper in millimeters. The tumor volumes were calculated using the formula: width^2×length/2 (using long [L] and short [W] axes of tumors). The tumor volumes were expressed in cubic millimeters (mm^3). Tumor volume data are expressed as mean±SE. The difference in tumor volume between vehicle and treatment group was expressed in percent volume reduction=100−tumor volume of treated/tumor volume of control×100. Statistical analysis was done using Graphpad Prism. Comparison between multiple groups was done using one-way ANOVA with Newman-Keuls post-test with a 95% significance level.
Initial body weights were recorded prior to the initiation of treatment using a digital scale. […]

## CO[C@H]1CC[C@H](N2C(=O)CNc3ncc(-c4ccc(C(C)(C)O)nc4)nc32)CC1 [Compound 1, 7-(6-(2-hydroxypropan-2-yl)pyridin-3-yl)-1-((1r,4r)-4-methoxycyclohexyl)-3,4-dihydropyrazino-[2,3-b]pyrazin-2(1H)-one]
[1]
  tumor growth: significantly inhibited
[2]; 5 mg/kg (BID), 10 mg/kg (BID), 25 mg/kg (QD and Q2D), Day 25
  tumor growth inhibition: Significant (p<0.001) tumor growth inhibition
[2]; 10 mg/kg BID
  Body weight loss: 16.9%
  tumor volume reduction: Approximately 50%
[2]; 25 mg/kg QD
  Body weight loss: 14%
[2]; QD oral
  minimum dose required to obtain >65% tumor volume reduction compared to vehicle: 25 mg/kg
[2]; any other group
  change in body weight: No significant change
